Measurements from PMC12951562, “SH2scan: Mapping SH2 Domain-Ligand Binding Selectivity for Inhibitors and Degraders” (Journal of Medicinal Chemistry, 2026).
Where two headings read alike, the source gives them in different places. Non-standard residues stand in square brackets, D forms with d. Residues, ends and D or L forms follow the SMILES beside them. *: point of attachment. pY = N[C@@H](Cc1ccc(OP(=O)(O)O)cc1)C(=O)O; Caffeoyl = O=C(/C=C/c1ccc(O)c(O)c1)*

Columns and labels:
Experiment in all cases: biochemical
Assay type in all cases: binding
[1] = biological target: T1, TNS4 (Homo sapiens, UniProt Q8IZW8); settings: for remaining activity at 10 µM: read-out: percent of DMSO vehicle control
T1 construct: made in house; host or cells: HEK293 (transient transfection), unpurified extract
T1 sequence (Q8IZW8 19-715): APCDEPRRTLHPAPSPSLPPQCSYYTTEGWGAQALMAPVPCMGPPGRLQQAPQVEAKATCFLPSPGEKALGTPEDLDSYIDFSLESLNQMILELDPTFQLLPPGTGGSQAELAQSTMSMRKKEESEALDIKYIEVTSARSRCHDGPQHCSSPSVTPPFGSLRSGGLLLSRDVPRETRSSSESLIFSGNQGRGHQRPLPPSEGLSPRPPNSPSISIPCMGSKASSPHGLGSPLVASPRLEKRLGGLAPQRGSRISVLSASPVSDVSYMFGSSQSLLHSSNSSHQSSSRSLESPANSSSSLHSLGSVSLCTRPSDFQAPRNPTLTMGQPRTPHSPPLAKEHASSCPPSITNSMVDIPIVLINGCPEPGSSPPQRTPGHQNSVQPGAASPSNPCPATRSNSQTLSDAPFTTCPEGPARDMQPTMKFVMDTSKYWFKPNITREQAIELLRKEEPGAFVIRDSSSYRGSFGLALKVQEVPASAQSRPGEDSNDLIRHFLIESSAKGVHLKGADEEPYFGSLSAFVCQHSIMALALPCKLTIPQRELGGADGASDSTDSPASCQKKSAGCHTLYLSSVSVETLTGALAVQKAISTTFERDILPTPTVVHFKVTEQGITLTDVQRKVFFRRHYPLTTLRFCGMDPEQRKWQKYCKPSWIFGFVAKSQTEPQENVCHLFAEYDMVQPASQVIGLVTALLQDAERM

[2] = biological target: T2, VAV2 (Homo sapiens, UniProt P52735); settings: for remaining activity at 10 µM: read-out: percent of DMSO vehicle control
T2 construct: made in house; host or cells: HEK293 (transient transfection), unpurified extract
T2 sequence (P52735 1-878): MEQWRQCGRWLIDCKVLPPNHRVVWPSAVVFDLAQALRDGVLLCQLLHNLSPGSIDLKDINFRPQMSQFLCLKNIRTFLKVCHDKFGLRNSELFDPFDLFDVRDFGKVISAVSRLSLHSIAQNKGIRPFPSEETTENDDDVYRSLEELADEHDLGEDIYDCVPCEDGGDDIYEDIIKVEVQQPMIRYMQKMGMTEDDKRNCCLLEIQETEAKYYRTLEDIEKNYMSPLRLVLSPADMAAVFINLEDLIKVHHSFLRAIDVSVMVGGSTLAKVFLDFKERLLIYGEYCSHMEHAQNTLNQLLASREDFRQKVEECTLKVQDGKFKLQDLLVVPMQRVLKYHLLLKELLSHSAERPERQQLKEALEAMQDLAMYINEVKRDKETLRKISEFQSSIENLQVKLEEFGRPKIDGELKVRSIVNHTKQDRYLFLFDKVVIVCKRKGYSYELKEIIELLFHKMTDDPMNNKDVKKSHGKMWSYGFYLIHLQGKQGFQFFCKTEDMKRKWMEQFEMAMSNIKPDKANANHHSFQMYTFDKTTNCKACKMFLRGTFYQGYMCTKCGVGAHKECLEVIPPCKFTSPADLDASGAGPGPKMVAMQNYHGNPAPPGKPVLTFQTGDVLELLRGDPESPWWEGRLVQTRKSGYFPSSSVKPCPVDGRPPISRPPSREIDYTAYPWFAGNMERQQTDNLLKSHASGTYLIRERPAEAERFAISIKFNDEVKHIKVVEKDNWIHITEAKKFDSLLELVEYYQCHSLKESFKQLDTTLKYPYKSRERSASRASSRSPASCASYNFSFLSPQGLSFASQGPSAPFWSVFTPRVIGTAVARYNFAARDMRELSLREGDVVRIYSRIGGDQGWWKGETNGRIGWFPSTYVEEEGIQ

[3] = biological target: T3, PTPN6(SH2dom.C-term.) (Homo sapiens, UniProt P29350); settings: for remaining activity at 10 µM: read-out: percent of DMSO vehicle control
T3 construct: SH2dom.C-term. denotes SH2 domain closest to C-terminus of protein; made in house; host or cells: HEK293 (transient transfection, unpurified extract)
T3 sequence (P29350 110-213 limits assumed): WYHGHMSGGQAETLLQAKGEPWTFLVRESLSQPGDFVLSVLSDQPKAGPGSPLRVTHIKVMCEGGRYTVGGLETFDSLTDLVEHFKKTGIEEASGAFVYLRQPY

[4] = biological target: T4, SHF (Homo sapiens, UniProt Q7M4L6); settings: for remaining activity at 10 µM: read-out: percent of DMSO vehicle control
T4 construct: made in house; host or cells: HEK293 (transient transfection), unpurified extract
T4 sequence (Q7M4L6 1-423): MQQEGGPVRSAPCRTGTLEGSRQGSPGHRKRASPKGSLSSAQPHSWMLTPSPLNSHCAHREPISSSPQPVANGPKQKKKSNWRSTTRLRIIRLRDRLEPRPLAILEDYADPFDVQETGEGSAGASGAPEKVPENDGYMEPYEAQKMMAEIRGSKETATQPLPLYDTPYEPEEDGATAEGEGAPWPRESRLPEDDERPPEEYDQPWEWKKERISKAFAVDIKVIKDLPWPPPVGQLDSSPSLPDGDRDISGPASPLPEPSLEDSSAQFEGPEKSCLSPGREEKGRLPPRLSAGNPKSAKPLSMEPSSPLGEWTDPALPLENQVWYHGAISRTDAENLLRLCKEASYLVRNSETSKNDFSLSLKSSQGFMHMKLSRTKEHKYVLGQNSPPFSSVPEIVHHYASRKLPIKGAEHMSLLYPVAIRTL

[5] = biological target: T5, CBLC (Homo sapiens, UniProt Q9ULV8); settings: for percent of DMSO vehicle control at 10 µM / remaining activity at 10 µM: read-out: percent of DMSO vehicle control
T5 construct: the DNA-tagged SH2 domain concentrations used in this study were <0.1 nM; made in house; host or cells: HEK293 (transient transfection; unpurified extract)
T5 sequence (Q9ULV8 219-321 limits assumed): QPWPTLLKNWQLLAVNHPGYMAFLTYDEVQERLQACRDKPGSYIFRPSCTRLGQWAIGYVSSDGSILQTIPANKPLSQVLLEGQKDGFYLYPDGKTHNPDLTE

[6] = biological target: T6, GRB2 (Homo sapiens, UniProt P62993); settings: for percent of DMSO vehicle control: primary screen, 10 μM
T6 construct: the DNA-tagged SH2 domain concentrations used in this study were <0.1 nM; made in house; host or cells: HEK293 (transient transfection; unpurified extract)
T6 sequence (P62993 60-152 limits assumed): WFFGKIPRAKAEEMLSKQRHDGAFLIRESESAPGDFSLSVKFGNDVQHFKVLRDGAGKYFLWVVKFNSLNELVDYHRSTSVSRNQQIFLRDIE

| Structure (SMILES) | Kd [1] | percent of DMSO vehicle control [6] | remaining activity at 10 µM [2] | remaining activity at 10 µM [3] | remaining activity at 10 µM [4] | percent of DMSO vehicle control at 10 µM [5] | remaining activity at 10 µM [1] | remaining activity at 10 µM ([2]; primary screen, 10 μM) | remaining activity at 10 µM ([3]; primary screen, 10 μM) | remaining activity at 10 µM ([4]; primary screen, 10 μM) | remaining activity at 10 µM ([5]; primary screen, 10 μM) | KD ([1]; dose-response) | remaining activity at 10 µM ([1]; primary screen, 10 μM) | further results |
| --- | --- | --- | --- | --- | --- | --- | --- | --- | --- | --- | --- | --- | --- | --- |
| CC[C@H](C)[C@H](NC(=O)[C@H](CO)NC(=O)[C@H](CC(C)C)NC(=O)[C@H](CCCNC(=N)N)NC(=O)[C@H](CO)NC(=O)[C@H](CS)NC(C)=O)C(=O)N[C@@H](Cc1ccc(OP(=O)(O)O)cc1)C(=O)N[C@@H](CC(=O)O)C(=O)N[C@@H](CC(N)=O)C(=O)N[C@H](C(=O)N1CCC[C@H]1C(=O)NCC(N)=O)C(C)C [Ac-CSRLSIpYDNVPG-NH2] (Ac-CSRLSI[pY]DNVPG-NH2) | 0.0283 ± 0.00496 µM |  |  |  |  |  |  |  |  |  |  |  |  |  |
| CC[C@H](C)[C@H](NC(=O)[C@H](CCC(=O)O)NC(=O)[C@H](CCC(=O)O)NC(=O)[C@H](Cc1ccc(OP(=O)(O)O)cc1)NC(C)=O)C(=O)N[C@@H](CCC(=O)O)C(N)=O [Ac-pYEEIE-NH2] (Ac-[pY]EEIE-NH2) |  | 77.1% |  |  |  |  |  |  |  |  |  |  |  | percent of DMSO vehicle control ([2]; primary screen, 10 μM): 49.5±2.8%; percent of DMSO vehicle control ([3]; primary screen, 10 μM): 110.0%; percent of DMSO vehicle control ([4]; primary screen, 10 μM): 60.2%; percent of DMSO vehicle control ([5]; primary screen, 10 μM): 97.4±7.1%; percent of DMSO vehicle control ([1]; primary screen, 10 μM): 61.9±0.0% |
| CC(=O)N[C@@H](Cc1ccc(CP(=O)(O)O)cc1)C(=O)NC1(C(=O)N[C@@H](CC(N)=O)C(=O)NCCCc2c(O)ccc3ccccc23)CCCCC1 [CGP78850] | 0.508 µM | 0.0±0.0% | 50.4 ± 7.8% | 130.9 ± 0.8% | 77.1 ± 2.6% | 128 ± 29.6% | 5 ± 1.1% |  |  |  |  |  |  | Kd [6]: 0.0034 µM |
| CC[C@H](C)[C@H](NC(=O)[C@H](CCC(=O)O)NC(=O)[C@H](CCC(=O)O)NC(=O)[C@H](Cc1ccc(OP(=O)(O)O)cc1)NC(=O)/C=C/c1ccc(O)c(O)c1)C(=O)N[C@@H](CCC(=O)O)C(=O)O [Caffeic acid-pYEEIE] (Caffeoyl-[pY]EEIE-OH) | 2.6 ± 0.74 µM | 73.4±9.2% | 0.5 ± 0.1% | 114 ± 11% | 50.6 ± 4.3% | 0.1% | 3.1 ± 0.7% |  |  |  |  |  |  | Kd [2]: 0.058 ± 0.04 µM; Kd [4]: 27.2 ± 8.88 µM; Kd [5]: 0.037 ± 0.023 µM |
| O=C(CCl)Nc1cccc(CNC(=O)[C@H](Cc2ccc(OP(=O)(O)O)cc2)NC(=O)Cc2ccc(F)cc2)c1 [MN551] |  | 103.7% |  |  |  |  |  | 77.8 ± 4.8% | 147% | 103% | 43 ± 3.8% | No Hit | 25.9% |  |
| NC(=O)CC[C@H](NC(=O)[C@@H]1CC[C@@H]2CCN(C(=O)CCCCCC#Cc3cccc4c3CN(C3CCC(=O)NC3=O)C4=O)C[C@H](NC(=O)c3cc4cc(C(F)(F)P(=O)(O)O)ccc4[nH]3)C(=O)N21)C(=O)NC(c1ccccc1)c1ccccc1 (stereo partly shown) [SD-36] |  | 92.9±1.6% | 117 ± 1.5% | 108 ± 6.9% | 100 ± 5.2% | 113 ± 4.5% | 58.1 ± 8.9% |  |  |  |  |  |  |  |
| CC(=O)N1CC[C@H]2CC[C@@H](C(=O)N[C@@H](CCC(N)=O)C(=O)NC(c3ccccc3)c3ccccc3)N2C(=O)[C@@H](NC(=O)c2cc3cc(C(F)(F)P(=O)(O)O)ccc3[nH]2)C1 [SI-109] |  | 104.9% | 119% | 119% | 78.9 ± 3% | 106% | 110% |  |  |  |  |  |  |  |
| C/C(=C\C(=O)N[C@H](C(=O)N1CCC[C@H]1C(=O)N(c1ccccc1)c1ccc(I)cc1)C(C)(C)C)c1ccc(OP(=O)(O)O)cc1 [STAT6-IN-1] |  |  |  |  |  |  |  | 79.9 ± 1.6% | 45.8 ± 7.8% | 43.6 ± 7.2% | 3.3 ± 0.1% |  | 14 ± 3.4% | Kd ([5]; dose-response, read-out: KD): 1.8 ± 0.49 µM; Kd ([6]; dose-response, read-out: KD): 6.04 ± 1.4 µM; Kd ([1]; dose-response, read-out: KD): 1.8 ± 0.42 µM |
| CC(C)(C)[C@H](NC(=O)/C=C/c1ccc(OP(=O)(O)O)cc1)C(=O)N1CCC[C@H]1C(=O)N(c1ccccc1)c1ccc(I)cc1 [STAT6-IN-3] |  | 72.4±21.8% |  |  |  |  |  | 87.5 ± 11.3% | 136 ± 30.6% | 89.5 ± 4.6% | 34.7 ± 1.3% | No Hit | 21.6 ± 25.3% | Kd ([5]; dose-response, read-out: KD): 2.8 ± 0.52 µM |
| O=C(COc1ccc2cc(C(=O)Nc3ccccc3)ccc2c1)NCc1ccc(OP(=O)(O)O)c(OP(=O)(O)O)c1 [Stafib-1] |  | 79.5±8.8% |  |  |  |  |  | 95.8 ± 29.1% | 179% | 79.7 ± 9.4% | 100% | No Hit | 32.7% |  |
